Assays:
[1] = cited from earlier work; for plasma half-life: human volunteers, enantiomers
5-HT 1A = target: T1, 5-HT 1A (Homo sapiens, UniProt P08908); experiment: receptor binding screen, 5-HT 1A
T1 sequence (P08908 1-422): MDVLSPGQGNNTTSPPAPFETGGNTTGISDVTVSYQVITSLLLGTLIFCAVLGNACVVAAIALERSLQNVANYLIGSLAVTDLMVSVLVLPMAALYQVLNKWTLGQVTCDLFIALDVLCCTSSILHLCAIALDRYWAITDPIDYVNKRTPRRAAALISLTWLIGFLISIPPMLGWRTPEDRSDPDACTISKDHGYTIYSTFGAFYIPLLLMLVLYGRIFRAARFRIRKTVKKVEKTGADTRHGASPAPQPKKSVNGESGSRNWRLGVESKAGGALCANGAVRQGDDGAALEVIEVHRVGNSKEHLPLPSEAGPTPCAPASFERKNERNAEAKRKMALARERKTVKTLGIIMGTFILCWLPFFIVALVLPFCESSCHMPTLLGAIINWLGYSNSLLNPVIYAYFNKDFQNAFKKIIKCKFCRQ

5-HT7 = 5-HT7 (Homo sapiens, UniProt P34969); experiment: receptor binding screen, 5-HT7; conditions: 5-HT7, 10 μM
α2B-adrenergic receptor = target: T2, α2B-adrenergic receptor (Homo sapiens, UniProt P18089); experiment: ligand binding screen and equilibrium binding, α2B-adrenergic receptor; conditions: Adrenergic a2B; for inhibition at 10 µM: inhibition of ligand binding; for Ki: equilibrium binding
T2 sequence (P18089 1-450): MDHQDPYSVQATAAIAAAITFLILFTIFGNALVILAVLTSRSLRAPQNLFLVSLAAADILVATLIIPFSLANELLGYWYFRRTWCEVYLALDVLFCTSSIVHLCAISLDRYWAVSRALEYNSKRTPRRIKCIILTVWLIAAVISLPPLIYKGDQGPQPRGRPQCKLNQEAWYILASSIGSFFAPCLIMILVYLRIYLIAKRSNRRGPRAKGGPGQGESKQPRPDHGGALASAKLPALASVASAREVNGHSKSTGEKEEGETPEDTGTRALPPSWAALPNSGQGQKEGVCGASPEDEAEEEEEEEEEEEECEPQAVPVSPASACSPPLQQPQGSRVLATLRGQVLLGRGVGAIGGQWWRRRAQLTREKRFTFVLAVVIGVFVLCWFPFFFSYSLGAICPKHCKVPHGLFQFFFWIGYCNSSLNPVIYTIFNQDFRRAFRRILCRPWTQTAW

Adrenergic a2C = target: T3, Adrenergic a2C (Homo sapiens, UniProt P18825); experiment: receptor binding screen, Adrenergic a2C
T3 sequence (P18825 1-462): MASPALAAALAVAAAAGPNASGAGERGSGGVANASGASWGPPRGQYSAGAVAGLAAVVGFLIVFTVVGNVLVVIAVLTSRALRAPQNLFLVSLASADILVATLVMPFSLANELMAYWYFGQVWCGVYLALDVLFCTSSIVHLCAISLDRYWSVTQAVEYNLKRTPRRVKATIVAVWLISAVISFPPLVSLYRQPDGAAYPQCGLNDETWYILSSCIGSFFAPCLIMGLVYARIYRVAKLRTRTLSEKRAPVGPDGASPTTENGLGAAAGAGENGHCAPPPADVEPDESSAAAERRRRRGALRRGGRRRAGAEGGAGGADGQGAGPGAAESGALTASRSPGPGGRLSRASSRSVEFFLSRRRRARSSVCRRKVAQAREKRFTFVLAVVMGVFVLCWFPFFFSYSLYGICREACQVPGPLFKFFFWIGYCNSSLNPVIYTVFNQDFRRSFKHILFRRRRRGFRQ

[2] = hydrochloride or mucate salt form; cited from earlier work
[3] = tested on: Imidazoline 1 (I1) receptor; experiment: Imidazoline I1 receptor radioligand binding assay; set-up: species or system bovine; conditions: for Ki: Imidazoline-1 (I1), equilibrium binding
Experimental: Evaluation of the Affinity of Compounds for the Peripheral Imidazoline Receptor in Bovine Adrenal Medulla Glands Determined in a Radioligand Binding Assay.
Membrane homogenates of adrenal medulla glands (200 μg protein) are incubated for 60 min at 22° C. with 15 nM [^3H]clonidine in the absence or presence of the test compound in a buffer containing 137 mM NaCl, 2.68 mM KCl, 0.5 mM MgCl2, 8.1 mM Na2HPO4, 1.47 mM KH2PO4, 0.5 mM EGTA, 0.5 mM EDTA, 0.5% ascorbic acid and 0.1% BSA (pH 7.4). It also contains 10 μM RX821002 to block the α2-adrenergic receptors.
Nonspecific binding is determined in the presence of 10 μM rilmenidine.
Following incubation, the samples are filtered rapidly under vacuum through glass fiber filters (GF/B, Packard) presoaked with 0.3% PEI and rinsed several times with ice-cold 50 mM Tris-HCl using a 96-sample cell harvester (Unifilter, Packard). The filters are dried then counted for radioactivity in a scintillation counter (Topcount, Packard) using a scintillation cocktail (Microscint 0, Packard).
The results are expressed as a percent inhibition of the control radioligand specific binding.
The standard reference compound is rilmenidine, which is tested in each experiment at several concentrations to obtain a competition curve from which its IC50 is calculated.
Bibliographic reference: MOLDERINGS, G. J., MOURA, D., FINK, K., BONISCH, H. and GOTHERT, M. (1993), Binding of [3H]clonidine to I1-imidazoline sites in bovine adrenal medullary membranes, Naun.-Sch. Arch. Pharm., 348: 70.

[4] = target: Imidazoline-2 (I2) receptor; experiment: central Imidazoline I2 receptor radioligand binding assay; set-up: species or system rat
Experimental: Evaluation of the Affinity of Compounds for the Central Imidazoline I2 Receptor in the Rat Cerebral Cortex Determined in a Radioligand Binding Assay.
Membrane homogenates of cerebral cortex (1 mg protein) are incubated for 30 min at 22° C. with 2 nM [^3H]idazoxan in the absence or presence of the test compound in a buffer containing 50 mM Tris-HCl (pH 7.4), 0.5 mM EDTA and 3 μM yohimbine.
Nonspecific binding is determined in the presence of 10 μM cirazoline.
Following incubation, the samples are filtered rapidly under vacuum through glass fiber filters (Filtermat B, Wallac) presoaked with 0.3% PEI and rinsed several times with an ice-cold buffer containing 50 mM Tris-HCl and 150 mM NaCl using a 48-sample cell harvester (Mach II, Tomtec). The filters are dried then counted for radioactivity in a scintillation counter (Betaplate 1204, Wallac) using a solid scintillator (Meltilex B/HS, Wallac).
The results are expressed as a percent inhibition of the control radioligand specific binding. The standard reference compound is idazoxan, which is tested in each experiment at several concentrations to obtain a competition curve from which its IC50 is calculated.
Bibliographic reference: BROWN, C. M., MAC KINNON, A. C., McGRATH, J. C., SPEDDING, M. and KILPATRICK A. T. (1990), α2-adrenoceptor subtypes and imidazoline-like binding sites in the rat brain, Brit. J. Pharmacol, 99: 803.

[5] = tested on: Sigma receptor (non-selective); experiment: ligand binding screen, non-selective Sigma receptor; conditions: Sigma (non-select), inhibition of ligand binding
Sigma-1 receptor = Sigma-1 receptor (Homo sapiens, UniProt Q99720); experiment: equilibrium binding, Sigma-1 receptor; conditions: Sigma 1, equilibrium binding
Sigma-2 receptor = Sigma-2 receptor (Homo sapiens, UniProt Q5BJF2); experiment: equilibrium binding, Sigma-2 receptor; conditions: Sigma 2, equilibrium binding
human TAAR1 receptor = target: T4, human TAAR1 receptor (Homo sapiens, UniProt Q96RJ0); experiment: TAAR1 cAMP Biosensor Assay; format: cell-based; conditions: for Efficacy: TAAR1 activation, final concentration of 10 μM, free base; for EC50: TAAR1 cAMP accumulation, agonist dose response, mucate salts
T4 sequence (Q96RJ0 1-339): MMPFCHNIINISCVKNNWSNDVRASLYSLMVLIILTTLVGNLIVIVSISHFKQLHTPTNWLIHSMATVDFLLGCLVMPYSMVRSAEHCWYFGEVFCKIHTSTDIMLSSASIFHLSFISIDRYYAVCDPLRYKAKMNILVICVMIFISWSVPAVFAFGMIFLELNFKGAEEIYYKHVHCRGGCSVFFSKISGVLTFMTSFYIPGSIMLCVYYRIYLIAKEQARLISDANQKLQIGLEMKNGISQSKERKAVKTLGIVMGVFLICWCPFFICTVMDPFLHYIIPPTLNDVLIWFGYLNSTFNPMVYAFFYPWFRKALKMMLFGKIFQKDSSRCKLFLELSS
Experimental: To measure interactions with TAAR1, cell line stably expressing a recombinant human TAAR1 receptor were studied in the cAMP Biosensor Assay (DiscoveRx, Freemont, Calif.) since TAAR1 is coupled to G-proteins that signal through cAMP. The (S)- and (R)-Isometheptene isomers at a final concentration of 10 μM activate TAAR1 differentially, as shown on the table below, wherein (S)-Isometheptene activates more effectively than the R-Isometheptene. These activities may be linked to side-effects of racemic Isometheptene, due to the interaction of S-Isometheptene to the TAAR1 tyramine receptor.
Isometheptene Mucate USP, Isometheptene Mucate isomer 1, Isometheptene Mucate isomer 2 and p-Tyramine (control) in the TAAR1 cAMP Biosensor Assay of FIG. 23 as shown by the following diagrams (A), (B), (C), and (D). The data is shown as an agonist dose response curve, normalized to the maximal and minimal response observed in the presence of control ligand and vehicle respectively
The cAMP Hunter cell line expressing human TAAR1 was expanded from freezer stocks according to standard procedures. Cells were seeded in a total volume of 20 μL into white walled, 384-well microplates and incubated at 37° C. for the appropriate time prior to testing. cAMP modulation was determined using the DiscoveRx HitHunter cAMP XS+ assay. For agonist determination, cells were incubated with sample to induce response. Media was aspirated from cells and replaced with 15 μL 2:1 HBSS/10 mM Hepes:cAMP XS+ Ab reagent. Intermediate dilution of sample stocks was performed to generate 4× sample in assay buffer. 4.5 μL of 4× sample was added to cells and incubated at 37° C. or room temperature for 30 or 60 minutes. Final assay vehicle concentration was 1%. After appropriate compound incubation, assay signal was generated through incubation with 20 μL cAMP XS+ ED/CL lysis cocktail for one hour followed by incubation with 20 μL cAMP XS+ EA reagent for three hours at room temperature. Microplates were read following signal generation with a PerkinElmer Envision™ instrument for chemiluminescent signal detection. Compound activity was analyzed using CBIS data analysis suite (ChemInnovation, CA). For Gs agonist mode assays, percentage activity was calculated using the following formula: % Activity=100%×(mean RLU of test sample−mean RLU of vehicle control)/(mean RLU of MAX control−mean RLU of vehicle control).

5-HT7, sequence (P34969 whole entry, species assumed): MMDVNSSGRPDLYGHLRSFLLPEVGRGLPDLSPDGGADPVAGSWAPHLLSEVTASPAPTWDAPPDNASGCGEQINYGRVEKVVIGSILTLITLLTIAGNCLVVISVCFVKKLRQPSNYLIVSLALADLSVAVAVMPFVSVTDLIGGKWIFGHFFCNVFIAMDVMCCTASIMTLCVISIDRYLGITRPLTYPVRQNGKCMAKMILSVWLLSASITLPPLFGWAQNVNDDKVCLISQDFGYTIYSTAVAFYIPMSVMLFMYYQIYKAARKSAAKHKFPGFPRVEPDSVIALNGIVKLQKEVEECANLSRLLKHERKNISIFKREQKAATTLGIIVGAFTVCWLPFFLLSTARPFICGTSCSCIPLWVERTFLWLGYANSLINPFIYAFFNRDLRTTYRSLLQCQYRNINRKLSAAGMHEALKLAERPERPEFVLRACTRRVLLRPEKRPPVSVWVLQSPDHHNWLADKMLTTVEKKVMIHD
Sigma-1 receptor, sequence (Q99720 whole entry, species assumed): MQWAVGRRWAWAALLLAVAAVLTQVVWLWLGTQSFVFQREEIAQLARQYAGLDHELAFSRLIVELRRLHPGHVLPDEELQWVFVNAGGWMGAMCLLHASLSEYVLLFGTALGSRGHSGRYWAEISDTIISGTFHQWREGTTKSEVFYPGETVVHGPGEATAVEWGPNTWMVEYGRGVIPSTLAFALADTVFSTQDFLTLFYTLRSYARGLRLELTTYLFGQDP
Sigma-2 receptor, sequence (Q5BJF2 whole entry, species assumed): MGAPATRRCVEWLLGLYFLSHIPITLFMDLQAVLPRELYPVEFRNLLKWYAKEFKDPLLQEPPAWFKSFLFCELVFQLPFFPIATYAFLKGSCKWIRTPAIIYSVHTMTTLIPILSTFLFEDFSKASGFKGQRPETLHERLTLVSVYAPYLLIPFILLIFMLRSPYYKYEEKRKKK

CNC(C)Cc1ccc2c(c1)OCO2 (racemic) [MDMA, 3,4-methylenedioxy-N-methylamphetamine]
half-life ([1]; given as the racemate): around 8 hours

CNC(C)CCC=C(C)C (racemic) [Racemic, reference compound]
inhibition at 10 µM (5-HT 1A): 37% | inhibition at 10 µM (5-HT7): 46% | inhibition at 10 µM (α2B-adrenergic receptor): 76% | inhibition at 10 µM (Adrenergic a2C): 41% | solubility in water [2]: soluble in water

CN[C@@H](C)CCC=C(C)C (single isomer, unassigned) [Isomer 1]
inhibition at 10 µM (5-HT7): 13% | Ki (α2B-adrenergic receptor): 2700 nM | inhibition at 10 µM (α2B-adrenergic receptor): 29% | inhibition at 10 µM (Adrenergic a2C): 0% | interaction with I1 less avidly than the R-Isometheptene enantiomer ([3]; (S) versus (R) enantiomer): about 60 fold | Ki [3]: 1100 nM | Ki [4]: 1100 nM | Inhibition @ 10 μM(%) [4]: 84% | Inhibition @ 10 μM(%) [5]: 87% | Ki (Sigma-1 receptor): 2100 nM | Ki (Sigma-2 receptor): 5200 nM | Efficacy (human TAAR1 receptor): 49.4%

CNC(C)CCC=C(C)C (single isomer, unassigned) [Isomer 2]
inhibition at 10 µM (5-HT7): 31% | Ki (α2B-adrenergic receptor): 2300 nM | inhibition at 10 µM (α2B-adrenergic receptor): 57% | inhibition at 10 µM (Adrenergic a2C): 0% | binding to I1 receptor more avidly than the (S)-Isometheptene enantiomer ([3]; (R) versus (S) enantiomer): about 60 fold | Ki [3]: 18 nM | Ki [4]: 1500 nM | Inhibition @ 10 μM(%) [4]: 86% | Inhibition @ 10 μM(%) [5]: 86% | Ki (Sigma-1 receptor): 1900 nM | Ki (Sigma-2 receptor): 5600 nM | Efficacy (human TAAR1 receptor): 25.6%

CN[C@@H](C)CCC=C(C)C (single isomer, unassigned) [Isometheptene Mucate Isomer 1]
EC50 (human TAAR1 receptor): 21100 nM

O=C(O)[C@@H](O)[C@H](O)[C@H](O)[C@@H](O)C(=O)O (single isomer, unassigned) [Isometheptene Mucate Isomer 2]
EC50 (human TAAR1 receptor): 29500 nM

CN[C@H](C)Cc1ccc2c(c1)OCO2 [(R)-MDMA, (R)-3,4-methylenedioxy-N-methylamphetamine]
area under the blood plasma concentration versus time curve (AUC), (R)-MDMA relative to (S)-MDMA ([1]; 40 mg oral dose in human volunteers): two to four times higher | plasma half-life [1]: 5.8 ± 2.2 h

CN[C@@H](C)Cc1ccc2c(c1)OCO2 [(S)-MDMA]
plasma half-life [1]: 3.6 ± 0.9 h

— patent US9403755B2, “Isometheptene isomer” (TONIX PHARMACEUTICALS INC., priority 2013, dated 2016)
